Experimental data from US7893066B2, “Pyridol[2,3-B]pyrazinones for use as stearoyl CoA desaturase inhibitors” (Gilead Palo Alto, Inc., priority 2006, dated 2011).

The molecules below were run against T1, stearoyl-CoA desaturase (SCD) (Rattus norvegicus, UniProt P07308) (assay: SCD assay, rat liver microsomes with [3H]stearoyl CoA (adapted from Talamo and Bloch)). Conditions: second table, same SCD assay.
T1 construct: from tissue; host or cells: liver microsomes of male Sprague Dawley rats, with SCD induced by a carbohydrate-rich diet
T1 sequence (P07308 1-358): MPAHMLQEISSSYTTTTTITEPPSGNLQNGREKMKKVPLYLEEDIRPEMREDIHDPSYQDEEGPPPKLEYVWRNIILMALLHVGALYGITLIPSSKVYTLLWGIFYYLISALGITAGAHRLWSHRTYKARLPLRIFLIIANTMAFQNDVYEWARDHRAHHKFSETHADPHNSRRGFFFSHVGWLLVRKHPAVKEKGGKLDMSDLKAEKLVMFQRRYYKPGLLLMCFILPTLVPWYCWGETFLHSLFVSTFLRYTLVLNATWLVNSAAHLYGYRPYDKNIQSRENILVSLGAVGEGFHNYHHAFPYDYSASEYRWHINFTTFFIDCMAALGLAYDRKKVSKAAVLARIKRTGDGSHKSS
Type: biochemical
Description: The identification of compounds of the invention as SCD inhibitors was readily accomplished using the SCD enzyme and microsomal assay procedure described in Talamo and Bloch (1969) Analytical Biochemistry 29:300-304.
The rat liver microsomes were collected according to the procedure described in Ozols (1990) Methods Enzm, 182:225.
Male Spraque Dawley Rats were placed on regimented fasting protocol for one week to stimulate SCD enzymatic activity. 48-hour periods were alternated between feeding and fasting to induce and down-regulate SCD activity with SCD activity being induced via carbohydrate rich diet prior to liver perfusion and collection.
The rats were anesthetized with Isoflurane inhalation anesthetic, the liver perfused with cold phosphate buffered saline (PBS), weighed, and chilled in cold homogenization buffer (250 mM sucrose, 10 mM Tris, 1 mM EDTA, pH 7.6.
The livers were finely minced and placed in homogenization tube. 40 mL of homogenization buffer was added to the homogenization tube and the liver homogenized and centrifuged in a pre-chilled SLA-600 TC at 800G rotor for 10 min at 4° C.
Following centrifugation, the supernatant was collected and the pellet removed and discarded. This supernatant was then centrifuged at 10,000G for 35 minutes. Following centrifugation, the supernatant was collected and the pellet discarded. The supernatant was further centrifuged in a pre-chilled 45-Ti rotor at 130,000 G (41,000 RPM) for 90 minutes at 4° C.
The supernatant was then aspirated off and the collected microsomal pellet washed in 25 mL of Glycerol PBS (1×PBS 7.4, 20% Glycerol) and resuspended in 4-5 volumes of Glycerol PBS.
The protein concentration of the microsomal preparation was determined by BCA assay (Pierce) and the microsomes were aliquoted and stored at −80° C.
Biobeads were ground to a smaller size in a mortar and pestle and filtered through 300 μM mesh and then resuspended in 3.6% TCA.
SCD was determined in the desaturase assay buffer. This assay buffer contained 0.1 M Tris buffer, pH 7.2, 2 mM NADH, 4.8 mM ATP, 0.5 mM CoA, 4.8 mM MgCl2, and 0.1% BSA.
1 μl of each compound of Formula I was added to an assay plate by a low volume (0.5-10 μL) multichannel pipette. A DMSO control was also prepared. The microsomes were quickly thawed and added to assay buffer so that a concentration of 1-0.1 mg/ml was achieved (0.5-0.05 mg/ml assay final). 50 μl of the microsome suspension in assay buffer was then added into each well in the compound assay plate, the plate was covered, and the microsomes preincubated with the compounds for 30-60 minutes on the orbital shaker, 50-75 rpm, at room temperature.
After preincubation, the reaction was initiated by the addition of 50 μl of substrate solution (20 μM Stearoyl CoA, [3H]Stearoyl CoA, 74nCi) to the preincubated microsomes/compound suspensions in MilliQ (Millipore) H2O. The reaction mixtures were then incubated for 45 minutes on the orbital shaker at 50-75 rpm at room temperature.
The reaction was terminated by the addition of 10 μl of 21% trichloroacetic acid (TCA) to the reaction mixture followed incubation on the orbital shaker for 30 minutes at 50-75 rpm at room temperature followed by centrifugation for 5 minutes at 3700 rpm.
50 μl of a 6% Bio-Bead suspension in H2O was added to the reaction mixture and the assay plate was sealed. The Bio-Bead mixture was incubated on the orbital shaker for 1 to 24 hours, 100-150 rpm at room temperature, and then the mixture was centrifuged at 2000g for 5 minutes to pellet the Bio-Beads.
25 μl of the supernatant was harvested from each well and transferred to a detection plate. 100 μl of OptiPhase SuperMix scinitillation cocktail (containing sufficient NaOH to neutralize the TCA) was added and the solutions mixed by vigorous shaking (300-400 rpm) for 5 minutes at room temperature.

| Molecule | IC50 |
| --- | --- |
| CC(=O)NCCn1c(=O)c(-c2ccc(NC(C)=O)cc2)nc2ccc(NCc3cccc(C(F)(F)F)c3)nc21 [compound 25, N-(4-(4-(2-acetamidoethyl)-3-oxo-6-(3-(trifluoromethyl)benzylamino)-3,4-dihydropyrido[2,3-b]pyrazin-2-yl)phenyl)acetamide] | 4300 nM |
| CC(=O)NCCn1c(=O)c(-c2ccc(C)cc2)nc2ccc(NCc3cccc(C(F)(F)F)c3)nc21 [compound 26, N-(2-(3-oxo-2-p-tolyl-6-(3-(trifluoromethyl)benzylamino)pyrido[2,3-b]pyrazin-4(3H)-yl)ethyl)acetamide] | 110 nM |
| CCc1ccc(-c2nc3ccc(NCc4cccc(C(F)(F)F)c4)nc3n(CCNC(C)=O)c2=O)cc1 [compound 27, N-(2-(2-(4-ethylphenyl)-3-oxo-6-(3-(trifluoromethyl)benzylamino)pyrido[2,3-b]pyrazin-4(3H)-yl)ethyl)acetamide] | 93 nM |
| CC(=O)NCCn1c(=O)c(-c2ccc(F)cc2)nc2ccc(NCc3cccc(C(F)(F)F)c3)nc21 [compound 28, N-(2-(2-(4-fluorophenyl)-3-oxo-6-(3-(trifluoromethyl)benzylamino)pyrido[2,3-b]pyrazin-4(3H)-yl)ethyl)acetamide] | 390 nM |
| COc1ccc(-c2nc3ccc(NCc4ccc(Cl)c(Cl)c4)nc3n(CCNC(=O)CN(C)C)c2=O)cc1 [compound 32, N-(2-(6-(3,4-dichlorobenzylamino)-2-(4-methoxyphenyl)-3-oxopyrido[2,3-b]pyrazin-4(3H)-yl)ethyl)-2-(dimethylamino)acetamide] | 12000 nM |
| COc1ccc(-c2nc3ccc(NCc4ccc(Cl)c(Cl)c4)nc3n(CCNC(=O)COC(C)=O)c2=O)cc1 [compound 33, 2-(2-(6-(3,4-dichlorobenzylamino)-2-(4-methoxyphenyl)-3-oxopyrido[2,3-b]pyrazin-4(3H)-yl)ethylamino)-2-oxoethyl acetate] | 120 nM |
| Cc1nc2ccc(NCc3cccc(C(F)(F)F)c3)nc2n(CCCC(N)=O)c1=O [compound 36, 4-(2-methyl-3-oxo-6-(3-(trifluoromethyl)benzylamino)pyrido[2,3-b]pyrazin-4(3H)-yl)butanamide] | 1600 nM |
| COc1ccc(-c2nc3ccc(NCc4ccc(Cl)c(Cl)c4)nc3n(CCNC(=O)CN)c2=O)cc1 [compound 40, 2-amino-N-(2-(6-(3,4-dichlorobenzylamino)-2-(4-methoxyphenyl)-3-oxopyrido[2,3-b]pyrazin-4(3H)-yl)ethyl)acetamide] | 1900 nM |
| COc1ccc(-c2nc3ccc(NCc4ccc(Cl)c(Cl)c4)nc3n(CCNC(=O)CNC(C)=O)c2=O)cc1 [compound 41, 2-acetamido-N-(2-(6-(3,4-dichlorobenzylamino)-2-(4-methoxyphenyl)-3-oxopyrido[2,3-b]pyrazin-4(3H)-yl)ethyl)acetamide] | 1100 nM |
| COc1ccc(-c2nc3cc(NCc4ccc(Cl)c(Cl)c4)cnc3n(CCNC(C)=O)c2=O)cc1 [compound 42, N-(2-(7-(3,4-dichlorobenzylamino)-2-(4-methoxyphenyl)-3-oxopyrido[2,3-b]pyrazin-4(3H)-yl)ethyl)acetamide] | 2200 nM |
| CC(=O)NCCn1c(=O)c(C)nc2cc(NCc3ccccc3)cnc21 [compound 43, N-(2-(7-(benzylamino)-2-methyl-3-oxopyrido[2,3-b]pyrazin-4(3H)-yl)ethyl)acetamide] | 1100 nM |
| CC(=O)NCCN1C(=O)C(C)Nc2cc(NC(=O)OCc3ccccc3)cnc21 (stereo not shown) [compound 44, benzyl 4-(2-acetamidoethyl)-2-methyl-3-oxo-1,2,3,4-tetrahydropyrido[2,3-b]pyrazin-7-ylcarbamate] | 240 nM |
| COc1ccc(-c2nc3ccc(NCc4cccc(C(F)(F)F)c4)nc3n(NC(=O)COC(C)=O)c2=O)cc1 [compound 45, 2-(2-(4-methoxyphenyl)-3-oxo-6-(3-(trifluoromethyl)benzylamino)pyrido[2,3-b]pyrazin-4(3H)-ylamino)-2-oxoethyl acetate] | 6700 nM |
| COc1ccc(-c2nc3cc(NC(=O)OCc4ccccc4)ccc3n(CCNC(C)=O)c2=O)cc1 [compound 46, benzyl 1-(2-acetamidoethyl)-3-(4-methoxyphenyl)-2-oxo-1,2-dihydroquinoxalin-6-ylcarbamate] | 20000 nM |
| Cc1nc2ccc(NCc3cccc(C(F)(F)F)c3)cc2n(CCNC(=O)CCO)c1=O [compound 49, 3-hydroxy-N-(2-(3-methyl-2-oxo-7-(3-(trifluoromethyl)benzylamino)quinoxalin-1(2H)-yl)ethyl)propanamide] | 1100 nM |
| Cc1nc2ccc(NCc3cccc(C(F)(F)F)c3)cc2n(CCC(=O)NCCO)c1=O [compound 50, N-(2-hydroxyethyl)-3-(3-methyl-2-oxo-7-(3-(trifluoromethyl)benzylamino)quinoxalin-1(2H)-yl)propanamide] | 230 nM |
| Cc1nc2ccc(NCc3cccc(C(F)(F)F)c3)cc2n(CCNC(N)=O)c1=O [compound 53, 1-(2-(3-methyl-2-oxo-7-(3-(trifluoromethyl)benzylamino)quinoxalin-1(2H)-yl)ethyl)urea] | 15 nM |
| COc1ccc(-c2nc3ccc(NCCc4cccc(Cl)c4)cc3n(CCNC(C)=O)c2=O)cc1 [compound 54, N-(2-(7-(3-chlorophenethylamino)-3-(4-methoxyphenyl)-2-oxoquinoxalin-1(2H)-yl)ethyl)acetamide] | 100 nM |
| COc1ccc(-c2nc3ccc(NCc4ccc(C)c(C)c4)cc3n(CCNC(C)=O)c2=O)cc1 [compound 57, N-(2-(7-(3,4-dimethylbenzylamino)-3-(4-methoxyphenyl)-2-oxoquinoxalin-1(2H)-yl)ethyl)acetamide] | 26 nM |
| COc1ccc(-c2nc3ccc(NCCc4ccc(Cl)cc4)cc3n(CCNC(C)=O)c2=O)cc1 [compound 58, N-(2-(7-(4-chlorophenethylamino)-3-(4-methoxyphenyl)-2-oxoquinoxalin-1(2H)-yl)ethyl)acetamide] | 82 nM |
| COc1ccc(-c2nc3ccc(NCc4ccc(Cl)c(C(F)(F)F)c4)cc3n(CCNC(C)=O)c2=O)cc1 [compound 62, N-(2-(7-(4-chloro-3-(trifluoromethyl)benzylamino)-3-(4-methoxyphenyl)-2-oxoquinoxalin-1(2H)-yl)ethyl)acetamide;] | 6 nM |
| COc1ccc(-c2nc3ccc(NCc4ccc(F)c(C)c4)cc3n(CCNC(C)=O)c2=O)cc1 [compound 63, N-(2-(7-(4-fluoro-3-methylbenzylamino)-3-(4-methoxyphenyl)-2-oxoquinoxalin-1(2H)-yl)ethyl)acetamide] | 5 nM |
| COc1ccc(-c2nc3ccc(NCc4cc(C(F)(F)F)ccn4)cc3n(CCNC(C)=O)c2=O)cc1 [compound 64, N-(2-(3-(4-methoxyphenyl)-2-oxo-7-((4-(trifluoromethyl)pyridin-2-yl)methylamino)quinoxalin-1(2H)-yl)ethyl)acetamide] | 39 nM |
| (R)-3-(2-(4-methoxyphenyl)-3-oxo-6-(3-(trifluoromethyl)benzylamino)pyrido[2,3-b]pyrazin-4(3H)-yl)butanamide [compound 22] | 67 nM |
| (S)-2-hydroxy-N-(2-(3-methyl-2-oxo-7-(3-(trifluoromethyl)benzylamino)quinoxalin-1(2H)-yl)ethyl)propanamide [compound 48] | 8000 nM |
